Legend:
Experiment in all cases: relative viability (nuclei count vs DMSO), 5 days (fraction); higher = more cells survive
[1] = compound: CCC1=CN=CN=C1N2CCN(CC2)CC3=NC4=C(N3)C=C(C=C4)C(F)(F)F + C[C@@H](Oc1cc(-c2cnn(C3CCNCC3)c2)cnc1N)c1c(Cl)ccc(F)c1Cl [Crizotinib] (partner 1 µM)
Procedure, shortened: (§1)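 A single step with final 0.05% Triton X-100, 1% formaldehyde and 1 ug/ml Hoechst fixed the cells and stained nuclei 5 days after treatment. Lung cancer cell lines in 1536-well plates had been treated by pin tool the day after seeding with one drug alone or a fixed anchor-drug dose plus five library-drug doses (not always all listed) in √10 steps, and nuclei were counted on 4× images. Relative viability is the ratio of nuclei in treated wells to nuclei in vehicle wells, taken as the median of duplicate plates.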

[2] = compound: CCC1=CN=CN=C1N2CCN(CC2)CC3=NC4=C(N3)C=C(C=C4)C(F)(F)F + C[C@]1(O)C[C@@H](c2nc(-c3ccc4ccc(-c5ccccc5)nc4c3)c3c(N)nccn32)C1 [Linsitinib] (partner 1 µM)
Procedure, shortened: as §1

[3] = compound: CCC1=CN=CN=C1N2CCN(CC2)CC3=NC4=C(N3)C=C(C=C4)C(F)(F)F + Cc1nc(NC(=O)N2CCC[C@H]2C(N)=O)sc1-c1ccnc(C(C)(C)C(F)(F)F)c1 [Alpelisib] (partner 2 µM)
Procedure, shortened: as §1

[4] = compound: CCC1=CN=CN=C1N2CCN(CC2)CC3=NC4=C(N3)C=C(C=C4)C(F)(F)F + O=C(c1cc(Cc2n[nH]c(=O)c3ccccc23)ccc1F)N1CCN(C(=O)C2CC2)CC1 [Olaparib] (partner 8 µM)
Procedure, shortened: as §1

Cell Line	relative viability ([1]; first compound 0.04 µM)	relative viability ([1]; first compound 0.1265 µM)	relative viability ([1]; first compound 0.4 µM)	relative viability ([1]; first compound 1.265 µM)	relative viability ([1]; first compound 4 µM)	relative viability ([2]; first compound 0.04 µM)	relative viability ([2]; first compound 0.1265 µM)	relative viability ([2]; first compound 0.4 µM)	relative viability ([2]; first compound 1.265 µM)	relative viability ([2]; first compound 4 µM)	relative viability ([3]; first compound 0.04 µM)	relative viability ([3]; first compound 0.1265 µM)	relative viability ([3]; first compound 0.4 µM)	relative viability ([3]; first compound 1.265 µM)	relative viability ([3]; first compound 4 µM)	relative viability ([4]; first compound 0.04 µM)	relative viability ([4]; first compound 0.1265 µM)	relative viability ([4]; first compound 0.4 µM)	relative viability ([4]; first compound 1.265 µM)	relative viability ([4]; first compound 4 µM)
LCLC-97TM1	0.389	0.354	0.387	0.413	0.502	0.23	0.185	0.158	0.166	0.202	0.239	0.266	0.246	0.314	0.192	0.425	0.418	0.335	0.329	0.278
LCLC-103H	1.09	1.01	1.04	1	1.16	1.11	1.13	0.999	1.17	1.2	0.901	1.05	0.952	0.932	1.15	0.798	0.733	0.743	0.718	0.707
LK-2	0.331	0.181	0.212	0.486	1.07	0.739	0.515	0.588	0.319	0.598	1.14	1.09	0.991	0.775	1.06	0.817	0.675	0.603	0.517	0.712
LOU-NH91	0.695	0.696	0.761	0.779	0.801	0.807	0.923	0.963	0.87	1.04	0.621	0.689	0.712	0.63	0.72	0.892	0.951	0.898	0.896	0.94
NCI-H522	–	–	–	–	–	–	–	–	–	–	–	–	–	–	–	0.601	0.613	0.573	0.526	0.558
NCI-H1395	–	–	–	–	–	1.12	1.01	1.24	0.855	1.09	1.04	1.1	1.05	0.951	1.04	0.459	0.482	0.461	–	0.469
NCI-H1563	0.822	0.847	0.928	0.962	1.09	1.27	1.24	1.27	1.18	1.1	0.887	0.92	1	0.986	0.954	–	–	–	–	–
NCI-H1648	–	–	–	–	–	–	–	–	–	–	–	–	–	–	–	0.985	–	–	0.558	0.673
NCI-H1650	0.942	0.853	1.03	1.06	1.42	–	–	–	–	–	–	–	–	–	–	0.682	0.797	0.708	0.642	0.907
NCI-H1793	–	–	–	–	–	1	0.677	0.825	–	0.895	0.618	0.553	0.557	–	0.637	0.736	0.754	0.697	0.564	0.784
NCI-H2170	1.12	1.18	1.2	1.27	1.49	–	–	–	–	–	0.841	0.753	0.762	0.713	0.685	0.632	0.574	0.571	0.537	0.601
NCI-H2342	–	–	–	–	–	–	–	–	–	–	–	–	–	–	–	0.51	0.402	0.384	0.275	0.34
SW 900	–	–	–	–	–	–	–	–	–	–	–	–	–	–	–	0.928	0.764	0.863	–	0.82
